Reference: patent US10780094B2, “Use of carbonic anhydrase inhibitors for treatment of neurological and psychiatric disorders” (New York University, priority 2016, dated 2020)

Columns and labels:
[1] = Wright et al., 2008; cited from earlier work
[2] = system: Glioma cells; assay: Aβ-induced mitochondrial Cytochrome C release; assay type: cell-based, human
Experimental: (§1) Both SH-SY5Y cells and Glioma cells were plated on glass chamber slides (Thermo Fisher Scientific, Rochester, N.Y.). Slides were pre-coated with poly-D-lysine for SH-SY5Y cells. After seeding, cells were allowed to attach for 1 day prior to treatment with Aβ in the presence or absence of MTZ for 24 hours. Cells were then washed with PBS, fixed with 4% paraformaldehyde (10 min, RT) and blocked for 1 hour with 20 mg/ml BSA in PBS containing 0.3% Triton X-100 (PBST). Slides were further incubated with mouse monoclonal anti-CytC antibody (BD Biosciences; 1:200 in PBST containing 5 mg/ml BSA; 2 h, RT) followed by Alexa Fluor 488-conjugated anti-mouse IgG (Life Technologies, Grand Island, N.Y.) 1:200 in PBST with 5 mg/ml BSA for 1 h at RT, as previously described (Fossati et al., 2013). Fluorescence signals were visualized in a Zeiss LSM 510 laser scanning confocal/Confocor2 microscope using a 40×DIC oil immersion objective and LSM 510 software; acquired images were imported into ImageJ (National Institute of Health; http://rsbweb.nih.gov/ij/).
(§2) Subcellular distribution of CytC in amyloid-challenged SH-SY5Y and glioma cells was determined in mitochondrial and cytoplasmic protein extracts prepared using Mitochondria Isolation Kit (MITOISO2, Sigma) following the manufacturer's specifications. Briefly, after amyloid challenge in the presence and absence of Methazolamide, as above, cells were collected by trypsinization, resuspended in 10 mM HEPES, pH 7.5, containing 200 mM mannitol, 70 mM sucrose, 1 mM EGTA added of Protease Inhibitor Cocktail, and homogenized with the aid of a Dounce glass homogenizer. Cell homogenates were centrifuged to remove unbroken cells and nuclei (600×g, 5 min, 4° C.) and supernatants further centrifuged at 11,000×g (5 min, 4° C.) to subfractionate mitochondria. Supernatants, representing the cytosolic fractions as well as mitochondrial fractions were analyzed by CytC ELISA and WB.
(§3) The concentration of CytC in cytosolic and mitochondrial fractions was quantitated by solid phase sandwich ELISA (Quantikine ELISA, human Cytochrome C Immunoassay, R&D Systems) as described by the manufacturer. Prior to the assay, fractions containing cytoplasmic proteins were concentrated on Vivaspin 500 centrifugal concentrators (GE HealthCare, molecular weight cut off 5000), mitochondrial pellets were resuspended in Cell Lysis Buffer provided with the kit, and total protein of the respective fractions was evaluated by BCA protein assay (Thermo Fisher Scientific/Pierce). […] After washing away unbound proteins, wells were further incubated with an HRP-linked monoclonal antibody anti-human CytC, color developed with tetramethylbenzinine peroxidase substrate, and evaluated through quantitation of the Absorbance at 450 nm. […]

[3] = system: SH-SY5Y cells; assay: Aβ-induced mitochondrial Cytochrome C release; assay type: cell-based, human
Experimental: as §1, §2, §3

[4] = 100 μM MTZ together with Aβ42 10 μM, 24 hours
[5] = MTZ 100 and 300 μM, Aβ42 10 μM, 24 h

| SMILES | well tolerated daily dose in humans [1] [mg] | release of CytC (immunocytochemistry) [2, 4] | release of CytC by ELISA and Western blot in mitochondrial and cytosolic fractions [2, 5] | release of CytC (immunocytochemistry) [3, 4] | release of CytC by ELISA and Western blot in mitochondrial and cytosolic fractions [3, 5] |
| --- | --- | --- | --- | --- | --- |
| CC(=O)Nc1nnc(S(N)(=O)=O)s1 [ATZ, acetazolamide] | ≤ 1000 | – | – | – | – |
| CC(=O)/N=c1/sc(S(N)(=O)=O)nn1C [MTZ, methazolamide] | – | prevented | inhibition | prevented | inhibition |
